PMC3945162 (Psychopharmacology, 2013)
Values joined by “and” are separate entries in the source; they are usually repeats but may differ in a detail not shown here. Identical values can stand only once. Like-named read-outs stand apart in the source and are kept apart here.

Tests used:
Male Swiss–Webster mice = assay: Locomotor activity; type: in vivo, mouse; details: mice, i.p.
[1] = tested on: rats trained to discriminate DMT (5 mg/kg) from saline; type: in vivo, rat
[2] = tested on: rats trained to discriminate DOM (0.5 mg/kg) from saline; type: in vivo, rat; details: for Maximum %DAR (drug-appropriate responding): i.p., at dose of maximum DAR
[3] = tested on: rats trained to discriminate LSD (0.1 mg/kg) from saline; type: in vivo, rat; details: LSD-trained rats; for Maximum %DAR (drug-appropriate responding): i.p., at dose of maximum DAR
[4] = tested on: rats trained to discriminate MDMA (1.5 mg/kg) from saline; type: in vivo, rat; details: MDMA-trained rats
[5] = tested on: rats trained to discriminate METH (1 mg/kg) from saline; type: in vivo, rat; details: METH-trained rats
human 5-HT1A receptor [6] = target: T1, human 5-HT1A receptor (Homo sapiens, UniProt P08908); assay: [3H]8-OH-DPAT binding, HEK-5-HT1A
T1 sequence (P08908 1-422): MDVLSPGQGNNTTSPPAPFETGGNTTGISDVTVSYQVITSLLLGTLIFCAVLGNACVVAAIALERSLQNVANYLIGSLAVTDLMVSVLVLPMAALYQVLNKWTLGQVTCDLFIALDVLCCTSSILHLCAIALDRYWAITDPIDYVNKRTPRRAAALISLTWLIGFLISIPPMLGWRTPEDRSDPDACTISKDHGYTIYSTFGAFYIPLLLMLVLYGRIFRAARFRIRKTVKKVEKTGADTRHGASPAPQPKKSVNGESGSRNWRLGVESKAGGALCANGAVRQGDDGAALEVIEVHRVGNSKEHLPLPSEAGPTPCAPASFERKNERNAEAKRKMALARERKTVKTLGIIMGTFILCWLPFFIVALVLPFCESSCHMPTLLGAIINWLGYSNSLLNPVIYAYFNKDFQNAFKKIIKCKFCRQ

human 5-HT1A receptor [7] = target: T1, human 5-HT1A receptor; assay: [35S]GTPγS binding functional assay, HEK-5-HT1A; type: biochemical
human 5-HT2A receptor [8] = target: T2, human 5-HT2A receptor (Homo sapiens, UniProt P28223); assay: [125I]DOI binding, HEK-5-HT2A cells
human 5-HT2A receptor [9] = target: T2, human 5-HT2A receptor; assay: [3H]AA release from HEK-5-HT2A cells; type: cell-based
human 5-HT2A receptor [10] = target: T2, human 5-HT2A receptor; assay: IP-1 formation, HEK-5-HT2A cells; type: cell-based
human 5-HT2C receptor [11] = target: T3, human 5-HT2C receptor (Homo sapiens, UniProt P28335); assay: biochemical; type: binding
T3 sequence (P28335 33-458): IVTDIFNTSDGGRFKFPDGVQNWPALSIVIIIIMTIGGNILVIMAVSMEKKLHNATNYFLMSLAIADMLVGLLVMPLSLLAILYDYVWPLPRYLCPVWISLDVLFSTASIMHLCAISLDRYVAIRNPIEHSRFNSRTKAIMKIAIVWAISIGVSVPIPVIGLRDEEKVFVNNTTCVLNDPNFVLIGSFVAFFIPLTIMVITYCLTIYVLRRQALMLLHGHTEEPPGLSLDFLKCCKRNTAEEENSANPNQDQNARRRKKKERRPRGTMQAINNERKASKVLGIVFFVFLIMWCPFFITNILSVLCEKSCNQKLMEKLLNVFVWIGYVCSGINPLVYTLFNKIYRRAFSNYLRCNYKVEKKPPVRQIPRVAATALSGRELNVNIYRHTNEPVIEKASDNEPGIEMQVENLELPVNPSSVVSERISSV

human 5-HT2C receptor [12] = target: T3, human 5-HT2C receptor; assay: cell-based
hDAT [13] = target: T4, hDAT (Homo sapiens, UniProt Q01959); assay: [125I]RTI-55 binding, HEK-hDAT cells
hDAT [14] = target: T4, hDAT; assay: [3H]Dopamine uptake, HEK-hDAT cells; type: cell-based
hDAT [15] = target: T4, hDAT; assay: [3H]Dopamine release, HEK-hDAT cells; type: cell-based; details: HEK-hDAT cells
hSERT [16] = target: T5, hSERT (Homo sapiens, UniProt P31645); assay: [125I]RTI-55 binding, HEK-hSERT cells
hSERT [17] = target: T5, hSERT; assay: [3H]Serotonin uptake, HEK-hSERT cells; type: cell-based
hSERT [18] = target: T5, hSERT; assay: [3H]Serotonin release, HEK-hSERT cells; type: cell-based
hNET [19] = target: T6, hNET (Homo sapiens, UniProt P23975); assay: biochemical; type: binding
hNET [20] = target: T6, hNET; assay: cell-based
hNET [21] = target: T6, hNET; assay: cell-based; remark: listed apart in the source
5-HT2A = details: ref McLean et al. 2006; cited from earlier work

T4 sequence (Q01959 whole entry): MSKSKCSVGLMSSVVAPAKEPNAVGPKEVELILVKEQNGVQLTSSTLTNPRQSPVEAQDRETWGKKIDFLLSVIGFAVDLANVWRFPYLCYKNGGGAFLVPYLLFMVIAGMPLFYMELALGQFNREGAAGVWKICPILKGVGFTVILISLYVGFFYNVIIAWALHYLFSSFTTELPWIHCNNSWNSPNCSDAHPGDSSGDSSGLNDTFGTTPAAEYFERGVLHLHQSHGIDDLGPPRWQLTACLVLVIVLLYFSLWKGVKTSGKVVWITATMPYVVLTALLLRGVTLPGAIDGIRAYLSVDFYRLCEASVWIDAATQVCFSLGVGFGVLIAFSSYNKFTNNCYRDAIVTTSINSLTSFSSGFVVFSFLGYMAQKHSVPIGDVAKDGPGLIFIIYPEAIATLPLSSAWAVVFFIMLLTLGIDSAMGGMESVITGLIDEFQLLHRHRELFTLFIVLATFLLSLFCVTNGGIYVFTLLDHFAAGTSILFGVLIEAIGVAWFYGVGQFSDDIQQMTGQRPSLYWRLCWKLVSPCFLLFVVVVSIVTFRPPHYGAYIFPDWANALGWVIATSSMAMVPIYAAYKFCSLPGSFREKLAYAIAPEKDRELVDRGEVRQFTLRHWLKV
T6 sequence (P23975 whole entry): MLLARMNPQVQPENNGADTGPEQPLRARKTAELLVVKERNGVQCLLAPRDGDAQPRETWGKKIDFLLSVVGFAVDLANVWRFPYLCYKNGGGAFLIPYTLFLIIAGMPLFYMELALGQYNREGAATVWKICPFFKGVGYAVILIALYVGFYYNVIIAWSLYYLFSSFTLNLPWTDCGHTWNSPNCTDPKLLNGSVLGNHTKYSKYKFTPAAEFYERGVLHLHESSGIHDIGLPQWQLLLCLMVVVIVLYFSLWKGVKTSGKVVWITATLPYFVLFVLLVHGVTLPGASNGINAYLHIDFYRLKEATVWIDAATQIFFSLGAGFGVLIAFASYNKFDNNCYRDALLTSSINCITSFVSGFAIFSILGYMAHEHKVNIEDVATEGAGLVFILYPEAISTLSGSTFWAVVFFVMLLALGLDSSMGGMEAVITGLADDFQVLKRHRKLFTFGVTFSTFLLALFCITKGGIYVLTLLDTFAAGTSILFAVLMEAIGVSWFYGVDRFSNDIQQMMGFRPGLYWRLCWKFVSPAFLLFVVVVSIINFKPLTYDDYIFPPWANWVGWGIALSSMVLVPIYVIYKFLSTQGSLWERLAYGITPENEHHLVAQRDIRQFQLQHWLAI
T2 sequence (P28223 whole entry): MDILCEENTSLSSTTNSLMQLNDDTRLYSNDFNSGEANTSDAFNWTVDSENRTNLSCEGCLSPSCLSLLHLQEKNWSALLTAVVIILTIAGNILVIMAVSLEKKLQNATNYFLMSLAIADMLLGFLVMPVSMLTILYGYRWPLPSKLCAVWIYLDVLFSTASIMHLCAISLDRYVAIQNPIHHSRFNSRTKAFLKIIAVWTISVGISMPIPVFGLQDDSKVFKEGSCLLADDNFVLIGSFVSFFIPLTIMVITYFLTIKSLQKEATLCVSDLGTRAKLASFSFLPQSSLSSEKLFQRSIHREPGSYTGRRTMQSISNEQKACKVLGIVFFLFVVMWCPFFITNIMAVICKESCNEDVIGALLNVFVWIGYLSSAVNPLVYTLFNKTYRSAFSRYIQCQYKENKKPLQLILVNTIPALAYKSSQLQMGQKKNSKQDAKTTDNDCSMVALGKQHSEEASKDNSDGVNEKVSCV
T5 sequence (P31645 whole entry): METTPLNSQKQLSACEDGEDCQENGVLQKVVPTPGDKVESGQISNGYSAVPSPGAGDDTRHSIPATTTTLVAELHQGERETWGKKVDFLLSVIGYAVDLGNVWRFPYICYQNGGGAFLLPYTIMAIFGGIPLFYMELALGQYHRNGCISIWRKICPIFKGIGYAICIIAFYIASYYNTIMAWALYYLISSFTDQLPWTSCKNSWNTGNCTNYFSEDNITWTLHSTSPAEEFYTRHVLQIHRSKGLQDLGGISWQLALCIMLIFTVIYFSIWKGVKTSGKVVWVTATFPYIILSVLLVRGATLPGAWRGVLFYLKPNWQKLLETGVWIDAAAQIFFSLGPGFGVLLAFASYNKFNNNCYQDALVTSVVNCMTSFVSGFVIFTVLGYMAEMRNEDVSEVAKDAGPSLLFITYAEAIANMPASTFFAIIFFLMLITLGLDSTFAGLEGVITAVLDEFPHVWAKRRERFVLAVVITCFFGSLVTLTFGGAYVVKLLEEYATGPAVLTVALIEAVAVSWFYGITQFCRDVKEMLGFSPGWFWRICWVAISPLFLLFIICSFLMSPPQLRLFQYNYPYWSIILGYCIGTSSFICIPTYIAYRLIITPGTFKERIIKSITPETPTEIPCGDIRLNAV

**Q.** What does the source list for COc1cc(CC(C)N)c(OC)cc1Cl (stereo not shown) [DOC, 2,5-Dimethoxy-4-chloroamphetamine]?
**A.** Duration of depressant effects (Male Swiss–Webster mice): 30 to 80 min; Onset of depressant effects (within, after injection) (Male Swiss–Webster mice): ≤ 10 min; Rate of responding at dose of maximum DAR ([1]; DMT-trained rats, 15 min pretreatment): 0.354±0.125 resp/s; Rate of responding at dose of maximum DAR ([1]; DMT-trained rats, 60 min pretreatment): 0.777±0.095 resp/s; Maximum %DAR (drug-appropriate responding) ([1]; DMT-trained rats, i.p., 60 min pretreatment, at dose of maximum DAR): 83±17 %; Dose(s) that decreased response rate ([1]; rat, in vivo): ≥ 1 mg/kg; Rate of responding at dose of maximum DAR ([2]; 15 min pretreatment): 0.708±0.072 resp/s; Rate of responding at dose of maximum DAR ([2]; 60 min pretreatment): 0.493±0.058 resp/s; Maximum %DAR (drug-appropriate responding) ([2]; 15 min pretreatment): 83±17 %; Maximum %DAR (drug-appropriate responding) ([2]; 60 min pretreatment): 87±13 %; Rate of responding at dose of maximum DAR ([3]; 15 min pretreatment): 0.402±0.049 resp/s; Rate of responding at dose of maximum DAR ([3]; 60 min pretreatment): 0.410±0.139 resp/s; Maximum %DAR (drug-appropriate responding) ([3]; 15 min pretreatment): 81±16 %; Maximum %DAR (drug-appropriate responding) ([3]; 60 min pretreatment): 95±3 %; Rate of responding at dose of maximum DAR ([4]; 15 min pretreatment): 0.449±0.104 resp/s; Rate of responding at dose of maximum DAR ([4]; 60 min pretreatment): 0.356±0.141 resp/s; Maximum %DAR (drug-appropriate responding) ([4]; i.p., 60 min pretreatment, at dose of maximum DAR): 60% and 60±24 ^2%; Rate of responding at dose of maximum DAR ([5]; 15 min pretreatment): 0.876±0.330 resp/s; Rate of responding at dose of maximum DAR ([5]; 60 min pretreatment): 0.276±0.098 resp/s; Ki (human 5-HT1A receptor [6]): > 9200 nM; EC50 (human 5-HT1A receptor [7]): > 10000 nM; Emax (human 5-HT1A receptor [7]; read-out: 5-HT1A Function [35S]GTPγS Binding % maximal effect): < 10%; Ki (human 5-HT2A receptor [8]): 4 ± 0.45 nM; EC50 (human 5-HT2A receptor [9]): 2.91 ± 0.66 nM; Emax (human 5-HT2A receptor [9]; read-out: 5-HT2A Function [3H]AA release % maximal effect): 81 ± 16%; EC50 (human 5-HT2A receptor [10]): 10.5 ± 2.6 nM; Emax (human 5-HT2A receptor [10]; read-out: 5-HT2A Function IP-1 formation % maximal effect): 102 ± 4.2%; Ki (human 5-HT2C receptor [11]): 3.57 ± 0.56 nM; EC50 (human 5-HT2C receptor [12]): 14.6 ± 3 nM; Emax (human 5-HT2C receptor [12]; read-out: 5-HT2C Function IP-formation % maximal effect): 97 ± 19%; Ki (hDAT [13]): > 10000 nM; IC50 (hDAT [14]): > 10000 nM; [3H]Dopamine release % METH maximal effect (hDAT [15]): ND Minimal; Ki (hSERT [16]): > 10000 nM; IC50 (hSERT [17]): > 8600 nM; [3H]Serotonin release % PCA maximal effect (hSERT [18]): ND Minimal; Ki (hNET [19]): > 7700 nM; IC50 (hNET [20]): > 8400 nM; [3H]NE release % METH maximal effect (hNET [21]): ND Minimal

**Q.** With COc1cc(Br)c(OC)c2c1[C@H](CN)C2 [((R)-4-bromo-3,6-dimethoxybenzocyclobuten-1-yl)methyl-amine)] as the compound, how does the “Fold more potent at stimulating inositol phosphate turnover than AA release” value (5-HT2A) read?
**A.** 65 fold
